The text below walks through data of patent US20060174366A1, “Use of ahas mutant genes as selection marker in potato transformation” (priority 2002, published 2006).

The structures appear in SMILES notation.

Assay [1] deals with Potato leaf segments of varieties Prevalent, Producent, Karnico and Desiree. The assay can be described thus: Investigation of selection pressure: lethality of Imazamox concentrations on shoot regeneration from untransformed leaf segments. In kind it is cell-based, Solanum tuberosum. The protocol: Potato leaf segments from in vitro propagated plants of four different potato varieties Prevalent, Producent, Karnico and Desiree were tested for natural tolerance on different concentrations of the imidazolinone herbicide Imazamox. It is important to choose a selection concentration at which the potato leaf tissue is viable long enough to regenerate shoots but have a high enough concentration to prevent the regeneration of untransformed shoots. Doses 0.1, 0.5, 1, 5, 10, 20, 30 and 50 μM Imazamox were tested.
Fully expended potato leaves are diagonally cut in 2 pieces and precultivated on MC-plates for 2 to 3 days at 23 to 24° C., see table 1.
The leaf tissues are transferred on MS300 medium for additional 2 days and cultivated under modest light at 23 to 24° C. simulating a co-cultivation step. Subsequently the leaf segments are moved to MS400 plates containing 400 mg/l Claforan. Claforan is added in order to suppress growth of Agrobacterium tumfaciens. Therefore the regeneration of shoots on different concentrations of Imazamox need to be monitored in presence of Claforan. Selection is taking place within 4 to 5 days when the explants are moved to MS400 medium supplemented with 400mg/l Claforan and Imazamox at above concentrations.
The explants are transferred to fresh selection medium every fortnight.
Leaf tissues were tested for the use of the AHAS resistance gene contained in SEQ ID No. 1 and for the selection of transgenic potato plant cells as described above. Four different potato cultivars Prevalent, Producent, Karnico and Desiree were cultivated on different concentrations of Imazamox, an imidazolinones type herbicides. It is essential to use the proper concentration for selection to yield an acceptable number of shoots per explant without high escape rate. The lethality of various Imazamox concentrations on regeneration was evaluated.
Lethal dose for regeneration was detected within 0.1 to 1 μM ranges of concentrations. Slight variation in lethality was detected between varieties. […]

The subject of assay [2] is in vitro potato leaf segments. As to the kind of experiment: Effect of Imazamox on plant cell growth in tissue culture. The assay is classed as cell-based, Solanum tuberosum. The source says: Leaf segments are the explants of choice used in Agrobacterium mediated potato transformation. Transgenic plants are regenerated via direct or indirect organogenesis under selective conditions. Cytokinines as growth hormones are mainly involved in provoking cell division and adventitious bud formation in in vitro potato leaf segments. […] This phenomenon classifies Imazamox as a unique selection agent that is combining both lethality for non-transgenic cells and improved growth for transgenic cells.

Take `COCc1cnc(C2=NC(C)(C(C)C)C(=O)N2)c(C(=O)O)c1` (racemic) [Imazamox, (RS)-2-(4-isopropyl-4-methyl-5-oxo-2-imidazolin-2-yl)-5-methoxymethylnicotinic acid]: the lethality in regeneration in assay [1] (0.3 μM Imazamox) came to 80%; in assay [1] (0.5 μM Imazamox), 100%. Also, the Regeneration entry in assay [1] (0.5 μM Imazamox included in the medium) is reported as “No regeneration”. The “effect in tissue culture” value in assay [2] (applied in low concentrations) is reported as “cytokinine-like effect”; in assay [2] (at higher concentrations), “acting as an herbicide”.
